Source: patent US10392368B2, “Pyrazolo and triazolo bicyclic compounds as JAK kinase inhibitors” (THERAVANCE BIOPHARMA R&D IP, LLC, priority 2017, dated 2019)
Where two headings read alike, the source gives them in different places.

Assays:
[1] = molecular target: T1, JAK1 (Homo sapiens, UniProt P23458); experiment: Biochemical JAK1 kinase assay (LanthaScreen); conditions: for Ki: read-out: JAK 1 (pKi) (converted)
T1 construct: GST; purchased Life Technologies
Outline: (§1)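 Values are pKi, calculated by Cheng-Prusoff from IC50 obtained by robust 4-parameter fitting of percent inhibition. The kinase reaction used GFP-STAT1 peptide in HEPES pH 7.5 buffer with MgCl2, EGTA and Brij-35, ATP-initiated after compound pre-incubation, 1 h at ambient temperature.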

[2] = molecular target: T2, JAK2 (Homo sapiens, UniProt O60674); experiment: Biochemical JAK2 kinase assay (LanthaScreen); conditions: for Ki: read-out: JAK 2 (pKi) (converted)
T2 construct: GST; purchased Life Technologies
T2 sequence (O60674 whole entry): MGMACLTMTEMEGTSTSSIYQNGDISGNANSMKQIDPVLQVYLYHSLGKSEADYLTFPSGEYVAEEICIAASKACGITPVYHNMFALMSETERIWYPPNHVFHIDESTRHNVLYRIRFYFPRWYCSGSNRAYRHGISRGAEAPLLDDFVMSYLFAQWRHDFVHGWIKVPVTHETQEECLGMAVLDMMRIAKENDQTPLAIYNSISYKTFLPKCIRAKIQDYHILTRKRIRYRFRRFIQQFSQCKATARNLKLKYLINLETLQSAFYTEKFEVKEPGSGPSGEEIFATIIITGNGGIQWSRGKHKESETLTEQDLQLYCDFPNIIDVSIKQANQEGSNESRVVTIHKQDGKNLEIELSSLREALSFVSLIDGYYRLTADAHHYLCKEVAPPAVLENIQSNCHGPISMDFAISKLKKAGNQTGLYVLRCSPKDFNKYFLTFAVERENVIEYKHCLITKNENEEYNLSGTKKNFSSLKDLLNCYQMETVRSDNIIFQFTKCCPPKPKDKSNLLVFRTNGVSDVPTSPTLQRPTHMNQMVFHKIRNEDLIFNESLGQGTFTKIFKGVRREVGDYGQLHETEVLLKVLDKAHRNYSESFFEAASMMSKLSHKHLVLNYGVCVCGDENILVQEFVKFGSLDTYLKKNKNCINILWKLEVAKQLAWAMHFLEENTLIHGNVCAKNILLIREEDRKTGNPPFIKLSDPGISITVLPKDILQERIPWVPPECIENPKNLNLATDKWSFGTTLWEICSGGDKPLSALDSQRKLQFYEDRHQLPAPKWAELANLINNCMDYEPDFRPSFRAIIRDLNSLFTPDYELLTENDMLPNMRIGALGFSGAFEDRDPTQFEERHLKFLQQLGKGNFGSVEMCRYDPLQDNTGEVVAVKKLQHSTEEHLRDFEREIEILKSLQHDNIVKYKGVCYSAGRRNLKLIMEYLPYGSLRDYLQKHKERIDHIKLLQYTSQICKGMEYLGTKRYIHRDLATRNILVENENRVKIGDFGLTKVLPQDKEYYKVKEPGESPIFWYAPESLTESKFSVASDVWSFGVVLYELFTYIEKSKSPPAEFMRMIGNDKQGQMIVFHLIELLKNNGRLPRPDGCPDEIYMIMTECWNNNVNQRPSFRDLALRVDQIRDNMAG
Outline: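 GST-tagged recombinant JAK2 pre-incubated 1 h at ambient temperature with compound and GFP-STAT1 peptide in HEPES pH 7.5/MgCl2 buffer, then ATP added for a 1 h reaction with 1% DMSO. TR-FRET read after EDTA and Tb-anti-pSTAT1 (pTyr701) addition; IC50 from 4-parameter fit, converted to pKi by Cheng-Prusoff.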

[3] = molecular target: T3, Tyk2 (Homo sapiens, UniProt P29597); experiment: Biochemical Tyk2 kinase assay (LanthaScreen); conditions: for Ki: read-out: Tyk 2 (pKi) (converted)
T3 construct: GST; purchased Life Technologies
T3 sequence (P29597 whole entry): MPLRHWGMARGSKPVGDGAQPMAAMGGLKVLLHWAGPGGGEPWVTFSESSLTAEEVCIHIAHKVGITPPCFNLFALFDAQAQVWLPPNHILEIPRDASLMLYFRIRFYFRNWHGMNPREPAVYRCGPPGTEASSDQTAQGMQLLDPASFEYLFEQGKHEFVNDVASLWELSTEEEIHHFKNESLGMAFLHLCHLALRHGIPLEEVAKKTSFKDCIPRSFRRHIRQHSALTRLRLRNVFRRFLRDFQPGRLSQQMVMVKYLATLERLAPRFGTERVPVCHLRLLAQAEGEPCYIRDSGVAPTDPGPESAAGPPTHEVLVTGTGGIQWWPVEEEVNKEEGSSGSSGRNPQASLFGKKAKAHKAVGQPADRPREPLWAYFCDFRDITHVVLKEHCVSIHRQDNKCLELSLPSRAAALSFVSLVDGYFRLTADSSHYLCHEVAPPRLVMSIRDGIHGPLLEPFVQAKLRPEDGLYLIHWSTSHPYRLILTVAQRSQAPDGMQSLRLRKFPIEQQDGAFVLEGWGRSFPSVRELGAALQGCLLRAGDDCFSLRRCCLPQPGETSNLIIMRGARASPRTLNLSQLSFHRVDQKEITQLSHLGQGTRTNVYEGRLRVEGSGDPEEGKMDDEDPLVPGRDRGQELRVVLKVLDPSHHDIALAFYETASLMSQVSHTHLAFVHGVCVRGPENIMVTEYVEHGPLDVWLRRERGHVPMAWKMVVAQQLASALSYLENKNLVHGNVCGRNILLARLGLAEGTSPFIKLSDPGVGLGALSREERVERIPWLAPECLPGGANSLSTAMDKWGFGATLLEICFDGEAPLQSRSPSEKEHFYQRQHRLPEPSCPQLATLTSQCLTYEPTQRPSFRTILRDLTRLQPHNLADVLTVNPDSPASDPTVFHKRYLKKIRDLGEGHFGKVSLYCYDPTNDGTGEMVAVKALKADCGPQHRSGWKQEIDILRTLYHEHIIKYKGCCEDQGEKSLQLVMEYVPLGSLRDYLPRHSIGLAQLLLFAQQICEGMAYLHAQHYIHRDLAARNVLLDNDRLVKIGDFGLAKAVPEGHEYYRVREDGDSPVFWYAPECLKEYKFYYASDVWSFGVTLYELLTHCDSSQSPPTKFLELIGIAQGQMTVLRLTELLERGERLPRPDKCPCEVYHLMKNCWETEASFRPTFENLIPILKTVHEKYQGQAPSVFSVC
Outline: as §1

[4] = system: IL-2 stimulated pSTAT5 in Tall-1 T cells; experiment: Cellular JAK3 potency assay: inhibition of IL-2 stimulated pSTAT5 in Tall-1 T cells; assay type: cell-based, human; conditions: for IC50: Homo sapiens, read-out: Tall-1 (pIC50) (converted)
Outline: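 In human Tall-1 T cells, IL-2 (300 ng/ml final, 30 min) drives STAT5 phosphorylation after a 1 h compound pretreatment. Lysates are assayed for pSTAT5 by AlphaLisa, and IC50 derived from signal versus concentration is expressed as pIC50.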

[5] = molecular target: T4, JAK3 (Homo sapiens, UniProt P52333); experiment: Biochemical JAK3 kinase assay (LanthaScreen); design: GST; purchased Life Technologies; conditions: for Ki: read-out: JAK 3 (pKi) (converted)
T4 sequence (P52333 1-1124): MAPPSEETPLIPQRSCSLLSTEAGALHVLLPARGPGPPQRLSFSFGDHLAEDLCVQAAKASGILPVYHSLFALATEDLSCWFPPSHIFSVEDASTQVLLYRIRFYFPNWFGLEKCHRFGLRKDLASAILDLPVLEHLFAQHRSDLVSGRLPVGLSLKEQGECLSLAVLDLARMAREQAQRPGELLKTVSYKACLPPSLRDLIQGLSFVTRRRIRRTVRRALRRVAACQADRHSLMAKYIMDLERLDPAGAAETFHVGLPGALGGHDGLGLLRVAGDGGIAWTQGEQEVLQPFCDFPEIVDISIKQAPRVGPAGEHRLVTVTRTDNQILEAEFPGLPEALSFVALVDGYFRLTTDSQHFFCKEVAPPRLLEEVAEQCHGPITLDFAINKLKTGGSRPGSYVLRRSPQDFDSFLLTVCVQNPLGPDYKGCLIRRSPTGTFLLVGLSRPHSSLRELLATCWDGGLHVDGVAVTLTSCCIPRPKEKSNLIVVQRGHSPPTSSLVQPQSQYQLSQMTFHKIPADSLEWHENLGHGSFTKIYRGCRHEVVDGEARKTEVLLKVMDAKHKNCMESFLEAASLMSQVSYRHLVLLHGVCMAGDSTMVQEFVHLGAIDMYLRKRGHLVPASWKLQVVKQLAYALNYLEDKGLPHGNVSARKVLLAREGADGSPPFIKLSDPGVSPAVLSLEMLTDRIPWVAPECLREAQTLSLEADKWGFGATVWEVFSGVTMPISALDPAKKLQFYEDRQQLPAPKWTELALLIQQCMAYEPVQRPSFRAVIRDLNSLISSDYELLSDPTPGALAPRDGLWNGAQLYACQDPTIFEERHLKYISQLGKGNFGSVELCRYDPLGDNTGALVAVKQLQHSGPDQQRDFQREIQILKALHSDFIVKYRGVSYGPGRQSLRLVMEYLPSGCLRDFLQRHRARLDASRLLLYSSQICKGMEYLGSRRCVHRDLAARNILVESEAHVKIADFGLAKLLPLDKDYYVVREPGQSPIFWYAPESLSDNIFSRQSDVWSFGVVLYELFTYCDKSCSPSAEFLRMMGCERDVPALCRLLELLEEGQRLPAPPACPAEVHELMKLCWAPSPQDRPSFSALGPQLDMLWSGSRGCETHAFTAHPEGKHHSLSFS
Outline: as §1

[6] = IL-2 stimulated pSTAT5 in Tall-1 T cells
[7] = selectivity: difference of pKi JAK3 and pKi JAK1
[8] = TALL-1, IL-2 stimulated pSTAT5 in Tall-1 T cells
[9] = IL-2 stimulated pSTAT5, Tall-1 T cells
[10] = selectivity JAK3 over JAK1, difference of pKi

T1 sequence (P23458 whole entry): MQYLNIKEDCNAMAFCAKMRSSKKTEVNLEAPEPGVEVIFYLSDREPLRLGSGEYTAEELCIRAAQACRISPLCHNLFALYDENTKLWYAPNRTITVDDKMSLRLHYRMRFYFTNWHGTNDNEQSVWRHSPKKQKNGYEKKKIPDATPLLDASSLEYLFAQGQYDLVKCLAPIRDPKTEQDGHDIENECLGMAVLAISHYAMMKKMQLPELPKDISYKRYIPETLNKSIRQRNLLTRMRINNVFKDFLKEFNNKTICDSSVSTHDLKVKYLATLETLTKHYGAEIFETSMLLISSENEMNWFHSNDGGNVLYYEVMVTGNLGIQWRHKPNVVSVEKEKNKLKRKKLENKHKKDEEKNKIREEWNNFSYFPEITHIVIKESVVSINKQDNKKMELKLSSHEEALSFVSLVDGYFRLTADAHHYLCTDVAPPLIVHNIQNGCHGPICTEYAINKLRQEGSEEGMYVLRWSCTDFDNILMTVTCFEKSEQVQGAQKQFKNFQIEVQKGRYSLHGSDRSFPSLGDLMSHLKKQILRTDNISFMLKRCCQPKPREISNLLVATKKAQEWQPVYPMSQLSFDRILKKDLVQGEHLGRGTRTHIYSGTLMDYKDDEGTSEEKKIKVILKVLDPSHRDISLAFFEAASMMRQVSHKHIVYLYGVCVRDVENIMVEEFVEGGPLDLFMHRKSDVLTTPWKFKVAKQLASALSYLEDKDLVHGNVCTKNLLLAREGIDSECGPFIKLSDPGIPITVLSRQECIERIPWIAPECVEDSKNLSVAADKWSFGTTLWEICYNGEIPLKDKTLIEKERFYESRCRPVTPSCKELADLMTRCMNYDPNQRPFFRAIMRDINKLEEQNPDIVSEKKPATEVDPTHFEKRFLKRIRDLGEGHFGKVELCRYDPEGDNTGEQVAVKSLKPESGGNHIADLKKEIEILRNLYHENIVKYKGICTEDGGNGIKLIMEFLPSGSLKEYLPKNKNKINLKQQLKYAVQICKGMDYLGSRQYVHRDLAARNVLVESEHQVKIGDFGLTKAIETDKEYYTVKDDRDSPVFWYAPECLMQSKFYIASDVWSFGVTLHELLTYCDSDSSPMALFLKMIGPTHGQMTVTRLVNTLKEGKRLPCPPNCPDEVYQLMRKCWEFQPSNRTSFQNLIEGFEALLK

| Structure (SMILES) | JAK 1 (pKi) [1] | JAK 2 (pKi) [2] | Tyk 2 (pKi) [3] | Tall-1 (pIC50) [4, 6] | JAK 3 (pKi) [5] | JAK3 (pKi)-JAK1 (pKi) [5, 7] | Ki [1] [nM] | Ki [2] [nM] | Ki [3] [nM] | IC50 [4, 8] [nM] | Ki [5] [nM] | Tall-1 (pIC50) [4, 9] | JAK3 (pKi)-JAK1 (pKi) [5, 10] | IC50 ([4]; TALL-1, IL-2 stimulated pSTAT5, Tall-1 T cells) [nM] |
| --- | --- | --- | --- | --- | --- | --- | --- | --- | --- | --- | --- | --- | --- | --- |
| C=CC(=O)N1CC(CN(C)c2cc(-c3ccc(O)c(F)c3)cc3[nH]ncc23)C1 [Compound 4-7] | E (a pKi value of 7 or below (Ki of 100 nM or above)) | E (a pKi value of 7 or below (Ki of 100 nM or above)) | E (a pKi value of 7 or below (Ki of 100 nM or above)) | B (a pIC50 value between 6.7 (included) and 7.5 (IC50 between 200 nM and 32 nM)) | C (a pKi value between 8 and 9 (Ki between 10 nM and 1 nM)) | B (a value of 2.3 to 3) | – | – | – | – | – | – | – | – |
| C=CC(=O)N1CC[C@H](Oc2cc(-c3ccc(O)cc3)cc3[nH]nc(C#N)c23)C1 [Compound 1-45] | – | – | – | – | – | A (a value of 3 or above) | > 100 | > 100 | > 100 | < 31.6 | < 0.1 | – | – | – |
| C=CC(=O)N1CC(COc2nc(-c3ccc(O)c(Cl)c3)nc3[nH]ncc23)C1 [Compound 3-38] | – | – | – | – | – | A (a value of 3 or above) | > 100 | > 100 | > 100 | 31.6 to 200 | < 0.1 | – | – | – |
| C=CC(=O)N1CCC(Oc2cc(-c3ccc(O)cc3)nc3[nH]ncc23)CC1C (stereo not drawn) [Compound 13-13] | E (a pKi value of 7 or below (Ki of 100 nM or above)) | E (a pKi value of 7 or below (Ki of 100 nM or above)) | E (a pKi value of 7 or below (Ki of 100 nM or above)) | – | B (a pKi value between 9 and 10 (Ki between 1 nM and 0.1 nM)) | – | – | – | – | – | – | C (a pIC50 value between 6 and 6.7 (IC50 between 1 μM and 200 nM)) | A (a value of 3 or above) | – |
| C=CC(=O)N1CC(CN(C)c2cc(-c3ccc(O)c(Cl)c3)cc3[nH]ncc23)C1 [Compound 4-5] | E (a pKi value of 7 or below (Ki of 100 nM or above)) | E (a pKi value of 7 or below (Ki of 100 nM or above)) | E (a pKi value of 7 or below (Ki of 100 nM or above)) | A (a pIC50 value≥7.5 (IC50≤32 nM)) | B (a pKi value between 9 and 10 (Ki between 1 nM and 0.1 nM)) | A (a value of 3 or above) | – | – | – | – | – | – | – | – |
| COCCN(C)C/C=C/C(=O)N1CC(COc2cc(-c3ccc(O)cc3)cc3[nH]ncc23)C1 [Compound 3-119] | – | – | – | – | – | B (a value of 2.3 to 3) | > 100 | 10 to 100 | > 100 | 31.6 to 200 | < 0.1 | – | – | – |
| C=CC(=O)N1CCC(COc2cc(-c3ccc(O)c(F)c3)nc3[nH]ncc23)CC1 [Compound 14-9] | E (a pKi value of 7 or below (Ki of 100 nM or above)) | E (a pKi value of 7 or below (Ki of 100 nM or above)) | E (a pKi value of 7 or below (Ki of 100 nM or above)) | – | B (a pKi value between 9 and 10 (Ki between 1 nM and 0.1 nM)) | – | – | – | – | – | – | B (a pIC50 value between 6.7 (included) and 7.5 (IC50 between 200 nM and 32 nM)) | A (a value of 3 or above) | – |
| C=CC(=O)N1CC(COc2cc(-c3ccc(O)cc3)cc3[nH]nc(C(F)(F)F)c23)C1 [Compound 18-13] | – | – | – | – | – | – | > 100 | 10 to 100 | > 100 | – | < 0.1 | – | A (a value of 3 or above) | < 31.6 |
| C=CC(=O)N1CC(Oc2cc(-c3ccc(O)c(Cl)c3)cc3[nH]ncc23)(C(F)F)C1 [Compound 5-21] | E (a pKi value of 7 or below (Ki of 100 nM or above)) | E (a pKi value of 7 or below (Ki of 100 nM or above)) | E (a pKi value of 7 or below (Ki of 100 nM or above)) | – | B (a pKi value between 9 and 10 (Ki between 1 nM and 0.1 nM)) | – | – | – | – | – | – | A (a pIC50 value≥7.5 (IC50≤32 nM)) | A (a value of 3 or above) | – |
| C=CC(=O)N1C2CCC1CC(Oc1cc(-c3ccc(O)c(Cl)c3)cc3[nH]ncc13)C2 (stereo not drawn) [Compound 9-2] | E (a pKi value of 7 or below (Ki of 100 nM or above)) | E (a pKi value of 7 or below (Ki of 100 nM or above)) | E (a pKi value of 7 or below (Ki of 100 nM or above)) | – | B (a pKi value between 9 and 10 (Ki between 1 nM and 0.1 nM)) | – | – | – | – | – | – | A (a pIC50 value≥7.5 (IC50≤32 nM)) | A (a value of 3 or above) | – |
| C=CC(=O)N1CCO[C@@H](C(=O)Nc2cc(-c3ccc(O)c(Cl)c3)nc3[nH]ncc23)C1 [Compound 13-22] | E (a pKi value of 7 or below (Ki of 100 nM or above)) | E (a pKi value of 7 or below (Ki of 100 nM or above)) | E (a pKi value of 7 or below (Ki of 100 nM or above)) | – | B (a pKi value between 9 and 10 (Ki between 1 nM and 0.1 nM)) | – | – | – | – | – | – | B (a pIC50 value between 6.7 (included) and 7.5 (IC50 between 200 nM and 32 nM)) | A (a value of 3 or above) | – |
| C=CC(=O)N1CC(F)(COc2nc(-c3ccc(O)c(Cl)c3)nc3[nH]ncc23)C1 [Compound 3-92] | – | – | – | – | – | A (a value of 3 or above) | > 100 | > 100 | > 100 | < 31.6 | < 0.1 | – | – | – |
| C=CC(=O)N1CC(Oc2nc(-c3ccc(O)cc3)nc3[nH]ncc23)CC1C (stereo not drawn) [Compound 1-24] | E (a pKi value of 7 or below (Ki of 100 nM or above)) | E (a pKi value of 7 or below (Ki of 100 nM or above)) | E (a pKi value of 7 or below (Ki of 100 nM or above)) | C (a pIC50 value between 6 and 6.7 (IC50 between 1 μM and 200 nM)) | B (a pKi value between 9 and 10 (Ki between 1 nM and 0.1 nM)) | A (a value of 3 or above) | – | – | – | – | – | – | – | – |
